Reference: patent US7338776B2, “Production of UGPPase” (JCR Pharmaceuticals Co., Ltd., priority 2002, dated 2008)

B1: human UGPPase: recombinant protein AAD15563.1 (SEQ ID NO:2) expressed in E. coli AD494(DE3), final MonoP-purified product (protein, listed as Homo sapiens)
chain: MERIEGASVGRCAASPYLRPLTLHYRQNGAQKSWDFMKTHDSVTVLLFNSSRRSLVLVKQFRPAVYAGEVERRFPGSLAAVDQDGPRELQPALPGSAGVTVELCAGLVDQPGLSLEEVACKEAWEECGYHLAPSDLRRVATYWSGVGLTGSRQTMFYTEVTDAQRSGPGGGLVEEGELIEVVHLPLEGAQAFADDPDIPKTLGVIFGVSWFLSQVAPNLDLQ
modifications: USPPase
B2: hUGPPase His-tag fusion protein: His-tagged hUGPPase expressed from pET-19b AAD15563.1 in E. coli, purified; ELISA standard (protein)
chain: MGLLLPLPVPGLLLLEAETHPHFPCNHGQEGACTRHARVRAYPGPLVHRRKRPAWLWELAAPACPGAAMERIEGASVGRCAASPYLRPLTLHYRQNGAQKSWDFMKTHDSVTVLLFNSSRRSLVLVKQFRPAVYAGEVERRFPGSLAAVDQDGPRELQPALPGSAGVTVELCAGLVDQPGLSLEEVACKEAWEECGYHLAPSDLRRVATYWSGVGLTGSRQTMFYTEVTDAQRSGPGGGLVEEGELIEVVHLPLEGAQAFADDPDIPKTLGVIFGVSWFLSQVAPNLDLQ
modifications: left off: small tags and cut ends
notes: His-tagged hUGPPase expressed from pET-19b AAD15563.1 in E. coli, purified; ELISA standard

What was measured:
human UGPPase = biological target: T1, human UGPPase (Homo sapiens, UniProt O95848); assay: UGPPase activity measurement (G1P produced, coupled NADH read-out), substrate specificity and UDPG dependence, human recombinant enzyme; assay type: biochemical; conditions: 5 mM of corresponding substrate, UDPG = 100%
T1 construct: made in house; host or cells: E. coli AD494(DE3), plasmid pET11a-AAD15563.1
T1 sequence (O95848 1-222): B1 chain
Experimental: (§1) UGPPase activity is defined based on the amount of G1P produced by the enzyme. The measurement is carried in two-step reactions according to the method reported by Rodriguez-Lopez et al. (11). In the first reaction, 50 μl of the reaction mixture consisting of a sample containing UGPPase, 0-20 mM concentration of a sugar nucleotide (UDP-, ADP- or GDP-glucose)(SIGMA), 20 mM MgCl2, and 50 mM Tris-HCl (pH 9.0), and the mixture is incubated at 37° C. for 30 minutes. As a blank, the same sample that has been boiled for two minutes to inactivate UGPPase is used. After the incubation period, the reaction is terminated by a two-minute boiling, and the mixture centrifuged at 20,000 g for 10 minutes at 4° C.
(§2) The reaction mixture is placed in a 96-well FluoroNunc™ plate (NUNC) and incubated at 37° C. for 10 minutes. This second reaction produces an equimolar amount of NADH to that of G1P produced in the first reaction. The amount of NADH is determined by measuring OD at 340 nm using a microplate reader (MOLECULAR DEVICE).
(§3) The activity was calculated as follows: 1U=[a]/30/0.03 where [a]is the amount in μmol of NADH produced in the reaction.
(§4) The above conditions of the first reaction were modified according to the purpose of each of the test, as specifically indicated below.

Porcine UGPPase = biological target: T2, Porcine UGPPase (Sus scrofa, UniProt Q865Y9); assay: UGPPase activity measurement (G1P produced, coupled NADH read-out), substrate specificity and UDPG dependence, porcine enzyme; assay type: biochemical, pig; conditions: 5 mM of corresponding substrate, UDPG = 100%
T2 construct: Fresh porcine kidney, 3.6-kg of weight, was homogenized; from tissue; host or cells: porcine kidney
T2 sequence (Q865Y9 1-222): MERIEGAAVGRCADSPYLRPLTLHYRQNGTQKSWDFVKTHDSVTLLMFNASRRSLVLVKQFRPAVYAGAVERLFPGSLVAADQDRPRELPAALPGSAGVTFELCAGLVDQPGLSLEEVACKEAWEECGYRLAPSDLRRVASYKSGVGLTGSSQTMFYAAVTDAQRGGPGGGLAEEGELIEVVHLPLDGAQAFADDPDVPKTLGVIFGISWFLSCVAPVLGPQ
Experimental: as §1, §2, §3, §4

[1] = Specific activity and optimal pH of purified UGPPase products; assay type: biochemical; conditions: UGPPase activity
Experimental: as §1, §2, §3, §4

[2] = biological target: rabbit anti-hUGPPase antibody; assay: hUGPPase ELISA; assay type: binding; conditions: rabbit anti-hUGPPase antibody as solid phase, fusion protein as standard (FIG. 23)
Experimental: The rabbit anti-hUGPPase antibody prepared in (14) above was diluted with 50 mM NaHCO3, pH 9.6 to prepare a 25 μg/ml solution. The solution was added to the wells of a 96-well plate (NUNC), 100 μl each, and incubated at 37° C. for 1 hour for coating. The antibody solution was removed and 300 μl of a blocking buffer [1.0% (w/v) BSA, PBS, 10 mM glycine, pH 7.4] was added to each well and incubated at 37° C. for 1 hour for blocking.
For preparation of a standard, hUGPPase His-tag fusion protein was diluted stepwise to 10 μg/ml-0.1 ng/ml using a dilution buffer [20 mM Tris, 150 mM NaCl, 0.1% (w/v) BSA, pH7.4].
To use as samples, two types of E. coli AD494(DE3) cells, the one with introduced plasmid pET-19b AAD15563.1 and the other with plasmid pET-19b, respectively, were lysed and diluted to 50, 5, 0.5 and 0.05 μg/ml with the dilution buffer. Each well of the plate was removed of the blocking buffer and washed 3 times with 300 μl each of TTBS. To each well was added 100 μl of the standard or the sample solution and an incubation followed at 37° C. for 1 hour.
For detection of hUGPPase His-tag fusion protein, the HRP-conjugated rabbit anti-hUGPPase antibody prepared in (15) was used after dilution to 0.5 μg/ml with the dilution buffer. […] After a 5-min incubation at room temperature, 50 μl of 2M H2SO4 was added to each well to terminate the reaction, and OD at 450 nm was measured.

| Molecule | % activity with respect to UDPG (human UGPPase) | % activity with respect to UDPG (Porcine UGPPase) | Specific activity of the final purified product [1] | Specific activity of the final purified product ([1]; listed as r-hUGPPase) | EC50 (effecter concentration for half-maximum response) of the ELISA system [2] |
| --- | --- | --- | --- | --- | --- |
| NC(=O)c1ccc[n+]([C@@H]2O[C@H](COP(=O)([O-])OP(=O)(O)OC[C@H]3O[C@@H](n4cnc5c(N)ncnc54)[C@H](O)[C@@H]3O)[C@@H](O)[C@H]2O)c1 [NAD] | bdl | bdl |  |  |  |
| Nc1nc2c(ncn2[C@@H]2O[C@H](COP(=O)(O)OP(=O)(O)O[C@H]3O[C@H](CO)[C@@H](O)[C@H](O)[C@H]3O)[C@@H](O)[C@H]2O)c(=O)[nH]1 [GDPG, GDP-glucose] | ~10% | ~10% |  |  |  |
| Nc1ccn([C@@H]2O[C@H](COP(=O)(O)OP(=O)(O)O[C@H]3O[C@H](CO)[C@@H](O)[C@H](O)[C@H]3O)[C@@H](O)[C@H]2O)c(=O)n1 [CDPG] | 3% | 2% |  |  |  |
| Nc1ncnc2c1ncn2[C@@H]1O[C@H](COP(=O)(O)O)[C@@H](O)[C@H]1O [AMP, adenosine 5′-monophosphate] | bdl | bdl |  |  |  |
| Nc1ncnc2c1ncn2[C@@H]1O[C@H](COP(=O)(O)OP(=O)(O)OC[C@H]2OC(O)[C@H](O)[C@@H]2O)[C@@H](O)[C@H]1O (stereo partly shown) [ADP-ribose] | 110% | 95% |  |  |  |
| O=[N+]([O-])c1ccc(OP(=O)(O)Oc2ccc([N+](=O)[O-])cc2)cc1 [Bis-PNPP] | bdl | bdl |  |  |  |
| O=c1ccn([C@@H]2O[C@H](COP(=O)(O)OP(=O)(O)OP(=O)(O)O)[C@@H](O)[C@H]2O)c(=O)[nH]1 [UTP] | bdl | bdl |  |  |  |
| O=[N+]([O-])c1ccc(OP(=O)(O)O)cc1 [PNPP] | bdl | bdl |  |  |  |
| Nc1ncnc2c1ncn2[C@@H]1O[C@H](COP(=O)(O)OP(=O)(O)OP(=O)(O)O)[C@@H](O)[C@H]1O [ATP] | bdl | bdl |  |  |  |
| O=C(O)[C@H]1O[C@H](OP(=O)(O)OP(=O)(O)OC[C@H]2O[C@@H](n3ccc(=O)[nH]c3=O)[C@H](O)[C@@H]2O)[C@H](O)[C@@H](O)[C@@H]1O [UDP-glucuronic] | bdl | bdl |  |  |  |
| Nc1ncnc2c1ncn2[C@@H]1O[C@H](COP(=O)(O)OP(=O)(O)O)[C@@H](O)[C@H]1O [ADP] | bdl | bdl |  |  |  |
| B1 |  |  | 6.7 U/mg | 6.74 U/mg |  |
| B2 |  |  |  |  | 0.2468 µg/mL |
